Measurements published in patent US12171230B2, “Herbicidal compositions” (Bayer Aktiengesellschaft, priority 2018, dated 2024).
Values joined by “and” are separate entries in the source; they are usually repeats but may differ in a detail not shown here. Equal values may be shown once.

Columns and labels:
Assay type in all cases: in vivo
[1] = tested on: Matricaria inodora; experiment: Post-emergence herbicidal action against Matricaria inodora; details: post-emergence, 14 DAT
[2] = tested on: Galium aparine; experiment: Post-emergence herbicidal action against Galium aparine
Summary of the method: (§1)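 Visual scoring against untreated controls, made 3 to 4 weeks after treatment, gives the % efficacy. Plants grown in pots of sandy loam were sprayed on green parts at the three-leaf stage with formulated compositions at 300 to 800 l/ha water. Combination efficacy above the Colby expected value indicates synergism.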

[3] = tested on: Lamium purpureum; experiment: Post-emergence herbicidal action against Lamium purpureum
Summary of the method: as §1

[4] = tested on: Abutilon theophrasti; experiment: Post-emergence herbicidal action against Abutilon theophrasti
Excerpt: (§2) The following abbreviations are used in the description and the tables that follow: • g of a.i./ha=grams of active substance (active ingredient) (=100% active compound) per hectare; • The sum total of the effects of the individual applications is reported under E^A; • expected values according to Colby are each reported under E^C.
(§3) The rating period is reported in days after application (DAT).

[5] = tested on: Digitaria horizontalis; experiment: Post-emergence herbicidal action against Digitaria horizontalis
Excerpt: as §2, §3

[6] = tested on: Viola tricolor; experiment: Post-emergence herbicidal action against Viola tricolor
Excerpt: as §2, §3

[7] = tested on: Phalaris minor; experiment: Post-emergence herbicidal action against Phalaris minor
Summary of the method: (§4)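 Each treatment was applied at a rate expressed as g of 100% active compound per ha, and the effect was scored a given number of days later (DAT). Reference values for combinations were calculated two ways: E^A, the sum of individual effects, and E^C, Colby's expected value.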

[8] = tested on: Bromus sterilis; experiment: Post-emergence herbicidal action against Bromus sterilis
Summary of the method: as §4

[9] = tested on: Brachiaria plantaginea; experiment: Post-emergence herbicidal action against Brachiaria plantaginea
Excerpt: as §2, §3

[10] = (Z61) post-emergence, g of a.i./ha: 1, 270, 90, 1 + 270, 1 + 90
[11] = (Z61) post-emergence, g of a.i./ha: 200, 100, 100 + 200

C=C[C@]1(C(=O)N[C@H]2CO[C@@H](C(=O)OC)C2)CC(c2cc(F)cc(F)c2)=NO1 (relative stereo) [Compound A3, methyl rel-(2R,4R)-4-[[(5S)-3-(3,5-difluorophenyl)-5-vinyl-4H-isoxazole-5-carbonyl]amino]tetrahydrofuran-2-carboxylate]
0% and 10%: Herbicidal action 28 DAT against Phalaris minor ([7]; 1 g of a.i./ha)
15%: Herbicidal action 28 DAT against Galium aparine ([2]; 1 g of a.i./ha) | Herbicidal action in [%] 28 DAT against Galium aparine ([2]; 1 g of a.i./ha) | Herbicidal action against Galium aparine ([2]; 28 DAT, 1 g of a.i./ha) | Herbicidal action 28 DAT against Viola tricolor ([6]; 1 g of a.i./ha) | Herbicidal action 28 DAT against Viola tricolor ([6]; (Z61) post-emergence, g of a.i./ha: 16, 1, 30, 16 + 30, 1 + 30, 1 g of a.i./ha) | Herbicidal action 14 DAT against Bromus sterilis ([8]; 1 g of a.i./ha) | Herbicidal action 28 DAT against Bromus sterilis ([8]; 1 g of a.i./ha) | Herbicidal action 28 DAT against Bromus sterilis [8, 10]
65%: Herbicidal action in [%] 28 DAT against Galium aparine ([2]; 4 g of a.i./ha) | Herbicidal action 14 DAT against Lamium purpureum L. ([3]; 1 g of a.i./ha) | Herbicidal action in [%] 14 DAT against Lamium purpureum L. ([3]; 1 g of a.i./ha) | Herbicidal action against Lamium purpureum L. ([3]; 14 DAT, 1 g of a.i./ha) | Herbicidal action 14 DAT against Lamium purpureum L. [3, 10]
25%: Herbicidal action 28 DAT against Lamium purpureum L. ([3]; 1 g of a.i./ha) | Herbicidal action in [%] 28 DAT against Lamium purpureum L. ([3]; 1 g of a.i./ha) | Herbicidal action against Lamium purpureum L. ([3]; 28 DAT, 1 g of a.i./ha)
50%: Herbicidal action 32 DAT [%] against Lamium purpureum ([3]; 100 g of a.i./ha, post-emergence) | Herbicidal action 14 DAT against Viola tricolor ([6]; 1 g of a.i./ha)
10%: Herbicidal action 21 DAT [%] against Abutilon theophrasti ([4]; 1.7 g of a.i./ha) | Herbicidal action 14 DAT against Phalaris minor ([7]; 1 g of a.i./ha) | Herbicidal action in [%] 28 DAT against Phalaris minor ([7]; 1 g of a.i./ha)
40%: Herbicidal action in [%] 14 DAT against Matricaria inodora ([1]; 16 g of a.i./ha) | Herbicidal action 14 DAT against Galium aparine ([2]; 1 g of a.i./ha) | Herbicidal action in [%] 14 DAT against Galium aparine ([2]; 1 g of a.i./ha) | Herbicidal action against Galium aparine ([2]; 14 DAT, 1 g of a.i./ha) | Herbicidal action 14 DAT against Galium aparine ([2]; (Z61) post-emergence, g of a.i./ha: 1, 270, 90, 30, 1 + 270, 1 + 90, 1 + 30) | Herbicidal action in [%] 28 DAT against Lamium purpureum L. ([3]; 4 g of a.i./ha) | Herbicidal action against Lamium purpureum L. ([3]; 28 DAT, 4 g of a.i./ha) | Herbicidal action 28 DAT against Phalaris minor ([7]; 16 g of a.i./ha)
20%: Herbicidal action 28 DAT against Viola tricolor ([6]; 16 g of a.i./ha) | Herbicidal action 28 DAT against Viola tricolor ([6]; (Z61) post-emergence, g of a.i./ha: 16, 1, 30, 16 + 30, 1 + 30, 16 g of a.i./ha) | Herbicidal action in [%] 14 DAT against Phalaris minor ([7]; 1 g of a.i./ha)
80%: Herbicidal action in [%] 28 DAT against Galium aparine ([2]; 16 g of a.i./ha, post-emergence)
82%: Herbicidal action 28 DAT [%] against Brachiaria plantaginea ([9]; 100 g of a.i./ha) | Herbicidal action 28 DAT against Brachiaria plantaginea [9, 11] | Herbicidal action 28 DAT against Brachiaria plantaginea ([9]; A3/Asulam, post-emergence, g of a.i./ha by row: 720, 100, 100 + 720)
87%: Herbicidal action 28 DAT against Digitaria horizontalis ([5]; A3/Asulam, second sub-table, post-emergence, g of a.i./ha by row: 720, 100, 100 + 720)
30%: Herbicidal action in [%] 14 DAT against Matricaria inodora ([1]; 4 g of a.i./ha) | Herbicidal action 21 DAT against Abutilon theophrasti ([4]; 5 g of a.i./ha) | Herbicidal action 28 DAT against Viola tricolor ([6]; 4 g of a.i./ha) | Herbicidal action in [%] 14 DAT against Bromus sterilis ([8]; 14 DAT, 1 g of a.i./ha) | Herbicidal action in [%] 28 DAT against Bromus sterilis ([8]; 1 g of a.i./ha)
75%: Herbicidal action 28 DAT against Galium aparine ([2]; 16 g of a.i./ha) | Herbicidal action in [%] 28 DAT against Galium aparine ([2]; 16 g of a.i./ha)
85%: Herbicidal action 14 DAT against Viola tricolor ([6]; 16 g of a.i./ha) | Herbicidal action in [%] 14 DAT against Phalaris minor ([7]; 4 g of a.i./ha) | Herbicidal action in [%] 14 DAT against Phalaris minor ([7]; 16 g of a.i./ha) | Herbicidal action in [%] 28 DAT against Phalaris minor ([7]; 16 g of a.i./ha) | Herbicidal action 14 DAT against Bromus sterilis ([8]; 4 g of a.i./ha)
70%: Herbicidal action in [%] 28 DAT against Galium aparine ([2]; 4 g of a.i./ha, post-emergence) | Herbicidal action 28 DAT against Phalaris minor ([7]; 4 g of a.i./ha)
35%: Herbicidal action 21 DAT [%] against Abutilon theophrasti ([4]; 15 g of a.i./ha)
0%: Herbicidal action 21 DAT against Abutilon theophrasti ([4]; 1.7 g of a.i./ha)
96%: Herbicidal action 28 DAT against Digitaria horizontalis [5, 11] | Herbicidal action 28 DAT against Digitaria horizontalis ([5]; A3/Asulam, first sub-table, post-emergence, g of a.i./ha by row: 720, 100, 100 + 720)
90%: Herbicidal action in [%] 28 DAT against Bromus sterilis ([8]; 4 g of a.i./ha)
